Results from BindingDB's records for doi:10.1074/jbc.M113.528695 (St. Paul's Hospital's Centre of Heart and Lung …, 2014).
pKd: −log10 of the molar value.

Biological target: T1, Nitric oxide synthase, endothelial (Bos taurus, UniProt P29473)
T1 sequence (P29473 whole entry): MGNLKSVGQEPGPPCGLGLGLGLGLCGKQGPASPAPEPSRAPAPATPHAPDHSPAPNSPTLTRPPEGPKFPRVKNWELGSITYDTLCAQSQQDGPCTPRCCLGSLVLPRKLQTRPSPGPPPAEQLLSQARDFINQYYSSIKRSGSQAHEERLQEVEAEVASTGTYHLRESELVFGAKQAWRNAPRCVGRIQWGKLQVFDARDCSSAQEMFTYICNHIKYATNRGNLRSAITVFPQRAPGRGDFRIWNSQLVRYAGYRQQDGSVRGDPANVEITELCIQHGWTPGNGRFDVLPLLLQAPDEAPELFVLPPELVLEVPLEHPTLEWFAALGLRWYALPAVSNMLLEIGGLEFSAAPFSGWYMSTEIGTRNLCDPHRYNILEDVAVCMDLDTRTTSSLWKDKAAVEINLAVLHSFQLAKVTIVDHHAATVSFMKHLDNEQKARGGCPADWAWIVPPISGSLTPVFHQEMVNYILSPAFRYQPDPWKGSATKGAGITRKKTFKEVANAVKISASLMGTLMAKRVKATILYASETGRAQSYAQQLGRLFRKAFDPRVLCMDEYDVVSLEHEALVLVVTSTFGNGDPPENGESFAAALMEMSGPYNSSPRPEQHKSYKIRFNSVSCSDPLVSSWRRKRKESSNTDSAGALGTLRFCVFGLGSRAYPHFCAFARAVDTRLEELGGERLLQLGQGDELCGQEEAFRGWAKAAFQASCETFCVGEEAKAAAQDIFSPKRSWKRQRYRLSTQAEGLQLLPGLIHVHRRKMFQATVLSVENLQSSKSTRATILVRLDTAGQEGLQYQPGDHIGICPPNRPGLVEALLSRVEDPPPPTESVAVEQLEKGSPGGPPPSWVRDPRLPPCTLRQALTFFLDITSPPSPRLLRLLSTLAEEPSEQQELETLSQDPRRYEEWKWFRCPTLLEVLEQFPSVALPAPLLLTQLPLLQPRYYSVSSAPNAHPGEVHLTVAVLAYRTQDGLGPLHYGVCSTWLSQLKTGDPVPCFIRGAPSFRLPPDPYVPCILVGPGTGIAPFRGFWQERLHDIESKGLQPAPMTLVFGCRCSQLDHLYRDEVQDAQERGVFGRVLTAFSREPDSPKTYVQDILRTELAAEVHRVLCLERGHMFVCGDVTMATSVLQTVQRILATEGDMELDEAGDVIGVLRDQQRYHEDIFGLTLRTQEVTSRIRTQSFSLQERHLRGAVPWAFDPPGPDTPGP
Test: Polarization Assay
Settings: pH 7.5; 25 °C
Method: eNOS was diluted to varying concentrations in buffer containing 50 mM inorganic phosphate, 50 mM KCl, and 5 mM DTT, pH 7.5. A spectrophotometer was used to determine the concentration of the fluorescein-labeled peptide using the extinction coefficient for fluorescein (ε492 nm = 79,000 M^-1). Peptides (100 nM) were added to samples containing varying concentrations of eNOS and incubated for 1 h at room temperature. Samples were then plated on 384-well Grenier Bio-One solid black microplates in triplicate. Polarization was measured with a Tecan Infinite M1000 Pro apparatus in fluorescent polarization mode using 470-nm excitation and 515-nm emission filters.

pKd	Substance
7.64	H-TTATVTKYWF-OH [TTATVTKYWF]
7.38	H-TTFTVTKYWF-OH [TTFTVTKYWF]
